Measured values published in publication PMC12040169 (PLOS Biology, 2025).

Assay: in vitro
Settings: human, hela cells

`CC(Oc1ccc(Cl)cc1Cl)C(=O)NC(=S)Nc1ccc2c(c1)C(=O)N(C)C2=O` (stereo not shown) [CBK267356] gave a viability at 28.5 h, 10 µM (% viability) of 93.9%.

Work on `Cc1nc(N)sc1-c1csc(Nc2cccc(C(F)(F)F)c2)n1` [CBK267357] yielded a viability at 28.5 h, 10 µM (% viability) of 95.2%.

In the case of `CCc1cc(OCCCSc2nc(C)cc(O)n2)ccc1Cl` [CBK267364], the viability at 28.5 h, 10 µM (% viability) is reported as 106%.

`CN(CCCc1nc(-c2ccc(Cl)cc2)no1)S(=O)(=O)c1ccc([N+](=O)[O-])cc1` [CBK267365] showed a viability at 28.5 h, 10 µM (% viability) of 96%.

`CN1CCN(NC(=O)CN(C)S(=O)(=O)c2cc(Cl)ccc2Cl)CC1` [CBK267366] gave a viability at 28.5 h, 10 µM (% viability) of 94.2%.

Compound `Cc1cc(C)c2c(c1)C1(C(=O)N2)C(C#N)=C(N)Oc2[nH]nc(-c3ccccc3)c21` (stereo not shown) [CBK267367] has a viability at 28.5 h, 10 µM (% viability) of 100%.

Compound `CC(CNC(=O)COc1ccc2ccccc2c1Br)CN(C)C` (stereo not shown) [CBK267369] has a viability at 28.5 h, 10 µM (% viability) of 94.9%.

`Cc1cc(O)nc(SCCOCCSc2ccc(Cl)cc2)n1` [CBK267372] gave a viability at 28.5 h, 10 µM (% viability) of 94%.

Work on `O=C(O)c1cc(NC(=O)c2ccc3c(c2)C(=O)N(Cc2ccco2)C3=O)cc(C(=O)O)c1` [CBK267374] yielded a viability at 28.5 h, 10 µM of 101%.

`CN(CC(=O)NNC(=O)c1ccc(C(C)(C)C)cc1)S(=O)(=O)c1cc(Cl)ccc1Cl` [CBK267376] showed a viability at 28.5 h, 10 µM (% viability) of 107%.

Work on `O=S(=O)(NCc1ccco1)c1ccc2c(c1)Cc1ccccc1-2` [CBK267377] yielded a viability at 28.5 h, 10 µM (% viability) of 95.5%.

Work on `COc1ccc(/C(N)=N/OC(=O)C(C)Oc2ccc(C(C)(C)C)cc2)cc1OC` (stereo not shown) [CBK267378] yielded a viability at 28.5 h, 10 µM (% viability) of 94.9%.

Work on `CCN1CCN(CCCOc2ccccc2Cc2ccccc2)CC1` [CBK267379G] yielded a viability at 28.5 h, 10 µM (% viability) of 95%.

Compound `CN(CCCC(=O)Nc1nnc[nH]1)S(=O)(=O)c1ccccc1` [CBK267380] has a viability at 28.5 h, 10 µM (% viability) of 82.4%.

In the case of `O=C(O)CCCC(=O)Nc1ccc([N+](=O)[O-])cc1O` [CBK267384], the viability at 28.5 h, 10 µM (% viability) is reported as 102%.

In the case of `CN(Cc1nc(-c2cccnc2)no1)S(=O)(=O)c1ccc2ccccc2c1` [CBK267385], the viability at 28.5 h, 10 µM (% viability) is reported as 87.2%.

In the case of `O=C(Nc1ccc(Cl)cc1Cl)NC(Cc1ccc(O)cc1)C(=O)O` (stereo not shown) [CBK267386], the viability at 28.5 h, 10 µM (% viability) is reported as 90.9%.

In the case of `COc1cc([N+](=O)[O-])ccc1NC(=O)CN(C)S(=O)(=O)c1ccc2ccccc2c1` [CBK267387], the viability at 28.5 h, 10 µM (% viability) is reported as 97.5%.

`CC(O)Cc1nnc(SCC(=O)c2ccc([N+](=O)[O-])cc2)n1-c1ccccc1` (stereo not shown) [CBK267389] showed a viability at 28.5 h, 10 µM (% viability) of 81.1%.

In the case of `O=C(COc1ccc2ccccc2c1Br)NCCN1CCOCC1` [CBK267391], the viability at 28.5 h, 10 µM (% viability) is reported as 89.7%.

In the case of `C=CCc1cc(C)cc(C)c1OCCN1CCN(CC)CC1` [CBK267392G], the viability at 28.5 h, 10 µM (% viability) is reported as 93.7%.

For `Nc1nc(CSc2nnc(-c3ccccc3O)n2Cc2ccccc2)cs1` [CBK267394], the viability at 28.5 h, 10 µM (% viability) was 90.4%.

For `COc1cc(OC)c(NC(=O)CN(C)S(=O)(=O)c2cc(Cl)ccc2Cl)cc1Cl` [CBK267399], the viability at 28.5 h, 10 µM (% viability) was 91.3%.

Compound `O=C(O)CCN1C(=O)c2ccc(Oc3ccc(NC(=O)c4ccc(Cl)c(Cl)c4)cc3)cc2C1=O` [CBK267400] has a viability at 28.5 h, 10 µM (% viability) of 90.6%.

`O=C(O)CCC(=O)Nc1ccc(-c2nc3cc(C(=O)c4ccccc4)ccc3[nH]2)cc1` [CBK267401] showed a viability at 28.5 h, 10 µM (% viability) of 100%.

Compound `Cc1cc(=O)oc2cc(OCc3ccc(S(=O)(=O)N4CCOCC4)cc3)ccc12` [CBK267402] has a viability at 28.5 h, 10 µM (% viability) of 91.3%.

Compound `COc1cc2c(cc1NC(=O)CN(C)S(=O)(=O)c1ccc(Cl)cc1)oc1ccccc12` [CBK267404] has a viability at 28.5 h, 10 µM (% viability) of 93.6%.

In the case of `O=C(Nc1ccc(Cl)cc1)NC(C(=O)O)c1ccccc1` (stereo not shown) [CBK267405], the viability at 28.5 h, 10 µM (% viability) is reported as 94.9%.

`Cc1ccccc1OCc1nnc(SCc2nnc(-c3ccccc3)o2)n1C` [CBK267406] gave a viability at 28.5 h, 10 µM (% viability) of 90.1%.

Work on `Cc1cc(O)nc(SCCCSc2ccccc2)n1` [CBK267415] yielded a viability at 28.5 h, 10 µM (% viability) of 114%.

`Cc1c(Cl)cc(C(C)C)c(O)c1CNC(=O)CSc1nnc(-c2cccs2)n1C` [CBK267416] gave a viability at 28.5 h, 10 µM (% viability) of 94.6%.

Compound `Nc1nnc(SCC(=O)NC23CC4CC(CC(C4)C2)C3)s1` [CBK267417] has a viability at 28.5 h, 10 µM (% viability) of 97.1%.

For `COCCCNCC#CCOc1ccccc1OC` [CBK267419G], the viability at 28.5 h, 10 µM (% viability) was 94.5%.

With `Cc1ccc(OCc2nnc(SCc3cccc(C#N)c3)n2N)cc1C` [CBK267420] the viability at 28.5 h, 10 µM (% viability) was 84.1%.

For `Cc1ccc(C23CC4CC(CC(NC(=O)NC(Cc5ccccc5)C(=O)O)(C4)C2)C3)cc1` (stereo not shown) [CBK267423], the viability at 28.5 h, 10 µM (% viability) was 93.7%.

Compound `O=C(CSc1nnc(-c2ccccc2)n1C1CCCCC1)Nc1ccc(Cl)cc1Cl` [CBK267424] has a viability at 28.5 h, 10 µM (% viability) of 100%.

`Cn1c(COc2ccccc2)nnc1SCC(=O)c1ccc(-c2ccccc2)cc1` [CBK267426] gave a viability at 28.5 h, 10 µM (% viability) of 87.9%.

For `COc1ccc(OC)c(NC(=O)CSc2nnc(-c3ccco3)o2)c1` [CBK267429], the viability at 28.5 h, 10 µM (% viability) was 98.3%.

`CN(CC(=O)Nc1nnc[nH]1)S(=O)(=O)c1cc(Cl)ccc1Cl` [CBK267433] gave a viability at 28.5 h, 10 µM (% viability) of 97%.

For `O=C(CSCc1c(Cl)cccc1Cl)Nc1cccc(-c2nnc(-c3ccccc3)o2)c1` [CBK267435], the viability at 28.5 h, 10 µM (% viability) was 96.7%.

Compound `NS(=O)(=O)c1ccc(CCNC2CC(=O)N(Cc3ccccc3)C2=O)cc1` (stereo not shown) [CBK267439] has a viability at 28.5 h, 10 µM (% viability) of 90.5%.

Compound `COC(=O)C(O)(CC(=O)Nc1ccc(C)c(F)c1)C(F)(F)F` (stereo not shown) [CBK267440] has a viability at 28.5 h, 10 µM (% viability) of 103%.

`CCOC(=O)NC(=O)CSc1nc2ccccc2[nH]1` [CBK267443] showed a viability at 28.5 h, 10 µM (% viability) of 91.9%.
